Data from US20240182470A1, “KRASG12C MUTANT PROTEIN INHIBITOR, PREARATION AND USE THEREOF” (YA THERAPEUTICS INC, priority 2021, published 2024).

System: H358 (KRAS G12C mutant) cells
Experiment: Tumor cell proliferation inhibition assay (Cell Titer-Glo, 72 h)
Format: cell-based
Details: inhibition of tumor cell proliferation, 72 hours with compound, 10% fetal bovine serum; read-out: NCI-H538 IC50(nm)
Method: The H358 (KRAS G^12C mutant) cells were digested, centrifuged and resuspended, and the cell density was measured with a Scepter automatic cell counter. The cells were diluted to a solution containing 44,000 cells per milliliter, and the density-adjusted cell solution was 90 microliters per well. into a 96-well culture plate. The 96-well plate was placed in a 37° C., 5% CO2 incubator. After the cells were cultured for 24 hours, different concentrations of the compounds to be tested were added. The cells were incubated with the compounds for 72 hours in the presence of 10% fetal bovine serum. Glo Luminescent Cell Viability Assay Kit (see manufacturer's instructions for details) was used to measure ATP content to assess cell growth inhibition. Briefly, 30 μl of Cell Titer-Glo reagent was added to each well, and the plate was shaken for 10 minutes to induce cell lysis. Fluoroskan
Ascent FL (Thermo) assay was used to record the fluorescent signal, and the maximum signal value was obtained from cells treated with dimethyl sulfoxide for 72 hours. The minimum signal value was obtained from the medium alone (the number of cells was zero), and the % inhibition rate=(the maximum signal value compound signal value)/(the maximum signal value—the minimum signal value×100%, and the data were processed using Graphpadprism 5 software. By sigmoid Dose-response curve fitting to calculate the IC50 value. “A” means IC50≤50 nM; “B” means 50<IC50≤500 nM; “C” means 500<IC50≤2000 nM; “D” means 2000 nM<IC50

| Structure (SMILES) | IC50 [nM] |
| --- | --- |
| C=C(F)C(=O)N1C2CCC1CN(c1nc(OC[C@@]34CCCN3C[C@H](F)C4)nc3c(F)c(-c4cc(O)cc5cccc(F)c45)c(Cl)cc13)C2 [Compound 42, 6-Chloro-74(3-hydroxy-8-fluoronaphthyl)-8-fluoro-4-(8-(2-fluoroacryloyl)-3,8-diazabicyclo[3.2.1]octane-3-yl)-2-(((2R,7aS)-2-fluorotetrahydro-1H-pyrincycline-7a(5H)-yl)methoxy)quinazoline] | ≤ 50 |
| C=C(F)C(=O)N1CCN(c2nc(OC[C@@]34CCCN3C[C@H](F)C4)nc3c(F)c(-c4cc(O)cc5cccc(F)c45)c(Cl)cc23)[C@H](C)C1 [Compound 44, 6-Chloro-74(3-hydroxy-8-fluoronaphthyl)-8-fluoro-4-(((R)-4-(2-fluoroacryloyl)-2-methylpiperazine)-1-yl)-2-(((2R,7aS)-2-fluorotetrahydro-1H-pyrincycline-7a(5H)-yl)methoxy)quinazoline] | ≤ 50 |
| C=CC(=O)N1CCN(c2nc(OC[C@@]34CCCN3C[C@H](F)C4)nc3c(F)c(-c4cc(O)cc5cccc(F)c45)c(Cl)cc23)[C@H](C)C1 [Compound 46, 6-Chloro-7-(3-hydroxy-8-fluoronaphthyl)-8-fluoro-4-(((R)-4-acryloyl-2-methylpiperazine)-1-yl)-2-(((2R,7aS)-2-fluorotetrahydro-1H-pyrinyl-7a(5H)-yl)methoxy)quinazoline] | ≤ 50 |
| C=CC(=O)N1CCN(c2nc(OC[C@@]34CCCN3C[C@H](F)C4)nc3c(F)c(-c4cccc5cccc(F)c45)ccc23)[C@H](C)C1 [Compound 47, 7-(8-Fluoronaphthyl)-8-fluoro-4-(((R)-4-acryloyl-2-methylpiperazine)-1-yl)-2-(((2R,7aS)-2-fluorotetrahydro-1H-pyrincyclo-7a(5H)-yl)methoxy)quinazoline] | ≤ 50 |
| C=CC(=O)N1CCN(c2nc(OC[C@@]34CCCN3C[C@H](F)C4)nc3c(F)c(-c4cc(O)cc5cccc(F)c45)ccc23)[C@H](C)C1 [Compound 48, 7-(3-Hydroxy-8-fluoronaphthyl)-8-fluoro-4-(((R)-4-acryloyl-2-methylpiperazine)-1-yl)-2-(((2R, 7aS)-2-fluorotetrahydro-1H-pyrincycline-7a(5H)-yl)methoxy)quinazoline] | ≤ 50 |
| C=CC(=O)N1CCN(c2nc(OCC34CCCN3CCC4)nc3c(F)c(-c4cc(O)cc5cccc(F)c45)ccc23)[C@H](C)C1 [Compound 49, 7-(3-Hydroxy-8-fluoronaphthyl)-8-fluoro-4-(((R)-4-acryloyl-2-methylpiperazine)-1-yl)-2-((tetrahydro-1H-pyrinyl-7a(5H)-yl)methoxy)quinazoline] | ≤ 50 |
| C=CC(=O)N1CCN(c2nc(OCC34CCCN3CCC4)nc3c(F)c(-c4cccc5cccc(F)c45)ccc23)[C@H](C)C1 [Compound 50, 7-(8-fluoronaphthyl)-8-fluoro-4-(((R)-4-acryloyl-2-methylpiperazine)-1-yl)-2-((tetrahydro-1H-pyrinecyclo-7a(5H)-yl)methoxy)quinazoline] | ≤ 50 |
| C=C(F)C(=O)N1CCN(c2nc(OC[C@@]34CCCN3C[C@H](F)C4)nc3c(F)c(-c4cc(O)cc5cccc(F)c45)ccc23)C[C@@H]1CC#N [Compound 52] | ≤ 50 |
| C=CC(=O)N1CCN(c2nc(OCC34CCCN3CCC4)nc3c(F)c(-c4cccc5cccc(F)c45)ccc23)C[C@@H]1CC#N [Compound 54, 7-(8-fluoronaphthyl)-8-fluoro-4-(((S)-4-(acryloyl)-3-carbonitrileethylpiperazine)-1-yl)-2-((tetrahydro-1H-pyrin-7a(5H)-yl)methoxy)quinazoline] | ≤ 50 |
| C=CC(=O)N1CCN(c2nc(OCC34CCCN3CCC4)nc3c(F)c(-c4cc(O)cc5cccc(F)c45)ccc23)C[C@@H]1CC#N [Compound 55] | ≤ 50 |
| C=C(F)C(=O)N1CCN(c2nc(OCC34CCCN3CCC4)nc3c(F)c(-c4cc(O)cc5cccc(F)c45)ccc23)C[C@@H]1CC#N [Compound 57] | ≤ 50 |
| C=C(F)C(=O)N1CCN(c2nc(OCC34CCCN3CCC4)nc3c(F)c(-c4cccc5cccc(F)c45)ccc23)C[C@@H]1CC#N [Compound 58, 7-(8-fluoronaphthyl)-8-fluoro-4-(((S)-4-(2-fluoroacryloyl)-3-carbonitrileethylpiperazine)-1-yl)-2-((tetrakis Preparation of Hydro-1H-Pyrin-7a(5H)-yl)methoxy)quinazoline] | ≤ 50 |
| C=CC(=O)N1CCN(c2nc(OC[C@@]34CCCN3CC(F)(F)C4)nc3c(F)c(-c4cc(O)cc5cccc(F)c45)ccc23)[C@H](C)C1 [Compound 60, 7-(3-Hydroxy-8-fluoronaphthyl)-8-fluoro-4-(((R)-4-acryloyl-2-methylpiperazine)-1-yl)-2-(((S)-2,2-difluorotetrahydro-1H-pyrinyl-7a(5H)-yl)methoxy)quinazoline] | ≤ 50 |
| C=CC(=O)N1CCN(c2nc(OC[C@@]34CCCN3CC(F)(F)C4)nc3c(F)c(-c4cccc5cccc(C)c45)ccc23)C[C@@H]1CC#N [Compound 67] | ≤ 50 |
| C=C(F)C(=O)N1CCN(c2nc(OC[C@@]34CCCN3CC(F)(F)C4)nc3c(F)c(-c4cccc5cccc(C)c45)ccc23)C[C@@H]1CC#N [Compound 68, 7-(8-Methylnaphthyl)-8-fluoro-4-(((S)-4-(2-fluoroacryloyl)-3-carbonitrileethylpiperazine)-1-yl)-2-(((S)-2,2-difluorotetrahydro-1H-pyrinyl-7a(5H)-yl)methoxy)quinazoline] | ≤ 50 |
| C=C(F)C(=O)N1CCN(c2nc(OC[C@@]34CCCN3CC(F)(F)C4)nc3c(F)c(-c4cccc5cccc(F)c45)c(Cl)cc23)C[C@@H]1CC#N [Compound 78, 6-Chloro-7-(8-fluoronaphthyl)-8-fluoro-4-(((S)-4-(2-fluoroacryloyl)-3-carbonitrileethylpiperazine)-1-yl)-2-(((S)-2,2-difluorotetrahydro-1H-pyrincycline-7a(5H)-yl)methoxy)quinazoline] | ≤ 50 |
| C=C(F)C(=O)N1CCN(c2nc(OC[C@@]34CCCN3CC(F)(F)C4)nc3nc(-c4cccc5cccc(F)c45)c(F)cc23)C[C@@H]1CC#N [Compound 83] | ≤ 50 |
| C=C(F)C(=O)N1CCN(c2nc(OC[C@@]34CCCN3CC(F)(F)C4)nc3nc(-c4cc(O)cc5cccc(F)c45)c(F)cc23)C[C@@H]1CC#N [Compound 84, 7-(3-Hydroxy-8-fluoronaphthyl)-6-fluoro-4-(((S)-4-(2-fluoroacryloyl)-3-carbonitrileethylpiperazine)-1-yl)-2-(((S)-2,2-difluorotetrahydro-1H-pyrinyl-7a(5H)-yl)methoxy)pyridine[2,3-d]lopyrimidine] | ≤ 50 |
| C=CC(=O)N1CCN(c2nc(OC[C@@]34CCCN3CC(F)(F)C4)nc3nc(-c4cccc5cccc(F)c45)ccc23)[C@H](C)C1 [Compound 86, 7-(8-Fluoronaphthyl)-4-(((R)-4-Acryloyl-2-methylpiperazine)-1-yl)-2-(((S)-2,2-difluorotetrakisHydro-1H-pyrincycl-7a(5H)-yl)methoxy)pyridine[2,3-d]lopyrimidine] | ≤ 50 |
| C=CC(=O)N1CCN(c2nc(OC[C@@]34CCCN3C[C@H](F)C4)nc3nc(-c4cccc5cccc(C)c45)ccc23)[C@H](C)C1 [Compound 89, 7-(8-Methylnaphthyl)-4-(((R)-4-Acryloyl-2-methylpiperazine)-1-yl)-2-(((2R,7aS)-2-fluorotetrahydro-1H-pyrincycl-7a(5H)-yl)methoxy)pyridine[2,3-d]lopyrimidine] | ≤ 50 |
| C=C(F)C(=O)N1CCN(c2nc(OC[C@@]34CCCN3CC(F)(F)C4)nc3nc(-c4cccc5cccc(F)c45)ccc23)C[C@@H]1CC#N [Compound 90, 7-(8-Fluoronaphthyl)-4-(((S)-4-(2-fluoroacryloyl)-3-carbonitrileethylpiperazine)-1-yl)-2-(((S)-2,2-difluorotetrahydro-1H-pyrincyclo-7a(5H)-yl)methoxy)pyridine[2,3-d]lopyrimidine] | ≤ 50 |
| C=C(F)C(=O)N1CCN(c2nc(OC[C@@]34CCCN3CC(F)(F)C4)nc3nc(-c4cc(O)cc5cccc(F)c45)ccc23)C[C@@H]1CC#N [Compound 91, 7-(3-Hydroxy-8-fluoronaphthyl)-4-(((S)-4-(2-fluoroacryloyl)-3-carbonitrileethylpiperazine)-1-yl)-2-(((S)-2,2-difluorotetrahydro-1H-pyrincycl-7a(5H)-yl)methoxy)pyridine[2,3-d]lopyrimidine] | ≤ 50 |
| C=C(F)C(=O)N1CCN(c2nc(OC[C@@]34CCCN3C[C@H](F)C4)nc3nc(-c4cccc5cccc(F)c45)ccc23)C[C@@H]1CC#N [Compound 92, 7-(8-Fluoronaphthyl)-4-(((S)-4-(2-fluoroacryloyl)-3-carbonitrileethylpiperazine)-1-yl)-2-(((2R,7aS)-2-fluorotetrahydro-1H-pyrincycl-7a(5H)-yl)methoxy)pyridine[2,3-d]lopyrimidine] | ≤ 50 |
| C=C(F)C(=O)N1CCN(c2nc(OC[C@@]34CCCN3C[C@H](F)C4)nc3nc(-c4cccc5cccc(C)c45)ccc23)C[C@@H]1CC#N [Compound 93] | ≤ 50 |
